What follows are compounds tested against T1, Pentachlorophenol 4-monooxygenase (Sphingobium chlorophenolicum, UniProt P42535) (assay: Spectroscopic Assay).
T1 sequence (P42535 whole entry): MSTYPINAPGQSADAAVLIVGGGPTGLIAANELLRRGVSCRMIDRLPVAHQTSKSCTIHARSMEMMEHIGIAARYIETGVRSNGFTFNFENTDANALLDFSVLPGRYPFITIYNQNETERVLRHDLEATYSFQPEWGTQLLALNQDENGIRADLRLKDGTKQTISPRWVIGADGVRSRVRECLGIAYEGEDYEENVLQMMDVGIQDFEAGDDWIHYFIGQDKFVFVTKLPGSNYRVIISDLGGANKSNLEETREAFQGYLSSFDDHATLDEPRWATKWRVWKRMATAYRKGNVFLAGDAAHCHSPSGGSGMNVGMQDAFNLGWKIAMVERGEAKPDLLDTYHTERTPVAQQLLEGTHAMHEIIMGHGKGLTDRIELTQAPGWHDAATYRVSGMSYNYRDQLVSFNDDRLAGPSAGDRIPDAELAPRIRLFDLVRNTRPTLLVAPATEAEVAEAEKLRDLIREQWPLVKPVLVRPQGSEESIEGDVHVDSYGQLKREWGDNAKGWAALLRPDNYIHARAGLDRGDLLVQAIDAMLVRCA
Procedure: Formation of the hydroxylated product and depletion of NADPH were measured following ethyl acetate extraction of the reaction mixture.
`Oc1c(Cl)c(Cl)cc(Cl)c1Cl` [2,3,4,6-Tetrachlorophenol (TCP)] showed a Kd of 11 µM. `Oc1c(Cl)cc(Cl)cc1Cl` [2,4,6-Trichlorophenol (2,4,6-TriCP)] was tested, and the Kd was 7 µM. For `Oc1c(Cl)cccc1Cl` [2,6-Dichlorophenol], the Kd was 45.5 µM. In the case of `Oc1ccccc1Cl` [2-Chlorophenol (2-CP)], the Kd is reported as > 1000 µM. With `Oc1cc(Cl)cc(Cl)c1` [3,5-Dichlorphenol (3,5-DCP)] the Kd was > 500 µM. `Oc1c(Cl)c(Cl)c(Cl)c(Cl)c1Cl` [Pentachlorophenol (PCP)] was tested, and the Kd was < 0.05 µM. For `Oc1cc(Cl)c(Cl)c(Cl)c1` [SMR001307309], the Kd was > 500 µM. `Oc1c(Cl)c(Cl)c(O)c(Cl)c1Cl` [Tetrachlorohydroquinone (TCHQ)] was tested, and the Kd was 4.2 µM.
